Common to all, as to type: cell-based
For series [1], the system named is human bcl-xs mRNA. Description: bcl-xs mRNA in A549 cells, RIBOQUANT RNase protection. Particulars: 200 nM oligonucleotide (Table 15). The text has this: (§1) In accordance with the present invention, a series of oligonucleotides were designed to target different regions of human bcl-x RNA, using published sequences (Boise, L. H., et al., 1993, Cell 74, 597-608; Genbank Accession No. L20121, locus name “HSBCLXL,” incorporated herein as SEQ ID NO: 39). Antisense oligonucleotides were designed to target areas of exon 1 and exon 2 of human bcl-x, particularly around the exon 1/exon 2 splice site and in sequence regions present in bcl-xl but not in bcl-xs. All backbone linkages are phosphorothioates; All 2′MOE cytosines are 5-methylcytosines.
(§2) Oligonucleotides were evaluated for their respective effects on bcl-xs and bcl-xl3 mRNA levels in A549 cells along with total bcl-x mRNA levels, using the RIBOQUANT™ RNase protection kit (Pharmingen, San Diego Calif.). All assays were performed according to manufacturer's protocols.
(§3) A “walk” was done in this region with 20mer 2′-MOE phosphorothioate oligonucleotides targeted to sequences whose 5′ ends were 24, 26, 29, 31, 33, 37, 39, 41, 43, 44, 45 and 47 bases upstream of the splice site. These oligonucleotides were screened as before at a dose of 200 nM oligonucleotide for effect on short and long bcl-x transcripts.

Series [2] has as its system human bcl-xl mRNA. The series can be described thus: bcl-xl mRNA in A549 cells, RIBOQUANT RNase protection. The conditions noted are these: 200 nM oligonucleotide (Table 15).
Source text: as §1, §2, §3

Series [3] concerns human bcl-x mRNA. The series can be described thus: Total bcl-x mRNA and bcl-xs/bcl-xl ratio in A549 cells, RNase protection. The conditions noted are these: for bcl-xs/bcl-xl: 200 nM oligonucleotide (Table 15); for ratio of bcl-xs/bcl-xl: Oligo Concentration 200 (unit not given).
Source text: as §1, §2, §3

Series [4] concerns human bcl-x mRNA. The series is described as above.
Setting [5] is: Oligo Concentration 50 (unit not given).
Setting [6] is: Oligo Concentration 100 (unit not given).
Setting [7] is: Oligo Concentration 400 (unit not given).
Setting [8] is: Oligo Concentration 600 (unit not given).

In the oligonucleotide strings, read from the 5' end, every base follows the letter of its sugar. An asterisk marks phosphorothioate; unmarked linkages are phosphodiester. Other units and linkages are bracketed, terminal groups are in braces. A string of capitals states the bases alone. e = 2'-O-(2-methoxyethyl) (MOE); [5mC] = 5-methylcytosine

On to “22783 (e[5mC]*eT*eG*eG*eA*eT*e[5mC]*e[5mC]*eA*eA*eG*eG*e[5mC]*eT*e[5mC]*eT*eA*eG*eG*eT) [compound 22783]”, for which the “% CONTROL bcl-xs” value in series [1] worked out at 247%. In series [2], the “% CONTROL bcl-xl” value came out at 47%. Also, the bcl-xs/bcl-xl in series [3] (A549 cells) amounted to 5.25. Moreover, the “bcl-xs/bcl-xl (%)” value in series [3] (A549 cells, no oligo 17.56) is 293.1%. Besides, the ratio of bcl-xs/bcl-xl was determined as 7 in series [3]; 3 in series [4] (setting [5]); 2 in series [4] (setting [6]); 24 in series [4] (setting [7]); 28 in series [4] (setting [8]).
On to “26080 (antisense CTGGTTACACGACTCCAGGT; mismatch control, further chemistry not given here) [compound 26080]”, for which the results for the ratio of bcl-xs/bcl-xl in series [3], in series [4] (setting [7]) and in series [4] (setting [8]) were <1, 1 and 3, respectively.
As for “26066 (ATCCAAGGCTCTAGGTGGTC; all 2'-MOE, all phosphorothioate, methylation of C not given here) [compound 26066]”, the “% CONTROL bcl-xs” value in series [1] stood at 400%. Moreover, the “% CONTROL bcl-xl” value in series [2] amounted to 26%. In addition, in series [3] (A549 cells), the bcl-xs/bcl-xl stood at 15.38. Moreover, the ratio of bcl-xs/bcl-xl in series [3] was determined as 24; in series [4] (setting [5]), 6; in series [4] (setting [6]), 11; in series [4] (setting [7]), 25.
Take “26067 (GGATCCAAGGCTCTAGGTGG; all 2'-MOE, all phosphorothioate, methylation of C not given here) [compound 26067]”: the “% CONTROL bcl-xs” value in series [1] is 211%. Further, the “% CONTROL bcl-xl” value in series [2] is listed as 32%. Further, the bcl-xs/bcl-xl in series [3] (A549 cells) was 6.59.
For “SEQ ID NO 57: AAGGCTCTAGGTGGTCATTC; 20mer 2′-MOE phosphorothioate, no ISIS # printed; Exon 1L 656-675 (all 2'-MOE, all phosphorothioate, methylation of C not given here)”, the “% CONTROL bcl-xs” value in series [1] is 405%. In addition, the “% CONTROL bcl-xl” value in series [2] is reported as 53%. Further, in series [3] (A549 cells), the bcl-xs/bcl-xl is on record as 7.64.
In the case of “SEQ ID NO 54: CTCTAGGTGGTCATTCAGGT; 20mer 2′-MOE phosphorothioate, no ISIS # printed; Exon 1L 652-671 (all 2'-MOE, all phosphorothioate, methylation of C not given here)”, the “% CONTROL bcl-xs” value in series [1] worked out at 300%. For the same substance, the “% CONTROL bcl-xl” value in series [2] is on record as 42%. The bcl-xs/bcl-xl in series [3] (A549 cells) was found to be 7.14.
Regarding “26069 (antisense TCTCCTGGATCCAAGGCTCT; all 2'-MOE, all phosphorothioate, methylation of C not given here) [compound 26069]”, the “% CONTROL bcl-xs” value in series [1] was determined as 232%. In series [2], the “% CONTROL bcl-xl” value was determined as 40%. In addition, the bcl-xs/bcl-xl in series [3] (A549 cells) came to 5.80.

These data come from US20020049173A1, “Alteration of cellular behavior by antisense modulation of mRNA processing” (priority 1999, published 2002).
